What was measured:
Assay type in all cases: biochemical
Settings in all cases: 12 hour incubation, 30-50 μM substrate, pH 7, 250 μM NAD(P)H
panel of oxidoreductases = test: Enzymatic screening of probes 1-7 against a panel of oxidoreductases (enzymes other than 3α-HSDs)
Method: (§1) FIG. 4. Screening of probes 1-7 against a panel of oxidoreductases Percentage fluorescence increase after 12 hour incubation of 30-50 μM substrate, 100 mM phosphate buffer (pH 7), 250 μM NAD(P)H, and 100 nM enzyme. Substrates 1, 2, 3, and 4 monitored at λexc=340 nm, λem=440 nm. Substrates 5, 6, and 7 monitored at λexc=440 nm, λem=510 nm. 3HSD, 3α-hydroxysteroid dehydrogenase (PT, Pseudomonas testosteroni), HLAD, horse liver alcohol dehydrogenase, TBAD, Thermoanaerobium brockii alcohol dehydrogenase, BS 12HSD, Bacillus sp. 12α-hydroxysteroid dehydrogenase, ABAD, amyloid-β binding alcohol dehydrogenase (human), GDH, glycerol dehydrogenase, YADH, yeast alcohol dehydrogenase, LDH, lactate dehydrogenase.
Probes 1-7 (see FIG. 3) were subsequently tested against a collection of dehydrogenases in the presence of NAD(P)H; the extent of reduction was assessed by the measurement of fluorescence intensity at the emission maximum of each probe (FIG. 4). […]
Initial Screening with Fluorogenic Substrates: Screening of the first fluorogenic substrates for enzymatic activity has been described above. […] Formation of the alcohol reduction product was determined by reading the fluorescence arising from excitation at the corresponding alcohol at either 340 nm (27-30) or 440 nm (31-33).

[1] = molecular target: T1, rat 3α-hydroxysteroid dehydrogenase (Rattus norvegicus, UniProt P23457); test: Enzymatic screening of probes 1-7 against a panel of oxidoreductases
T1 construct: gift of Professor Trevor Penning (University of Pennsylvania School of Medicine)
T1 sequence (P23457 1-322): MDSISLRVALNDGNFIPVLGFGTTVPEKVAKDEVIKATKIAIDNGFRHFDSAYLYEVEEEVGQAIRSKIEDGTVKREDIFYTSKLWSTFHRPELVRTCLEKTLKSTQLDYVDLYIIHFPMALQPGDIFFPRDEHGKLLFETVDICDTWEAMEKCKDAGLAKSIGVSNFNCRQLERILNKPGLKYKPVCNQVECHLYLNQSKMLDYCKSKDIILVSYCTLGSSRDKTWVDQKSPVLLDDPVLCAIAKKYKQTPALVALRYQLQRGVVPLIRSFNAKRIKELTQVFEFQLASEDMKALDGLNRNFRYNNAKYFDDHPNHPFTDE
Method: as §1
(§2) Probes 1-7 (see FIG. 3) were subsequently tested against a collection of dehydrogenases in the presence of NAD(P)H; the extent of reduction was assessed by the measurement of fluorescence intensity at the emission maximum of each probe (FIG. 4). This assay included enzymes from two major oxidoreductase superfamilies, the short chain alcohol dehydrogenases (SDR) and the aldo-keto reductases (AKR), ranging from bacterial to mammalian and human enzymes.
(§3) Horse Liver alcohol dehydrogenase (Lot Number 51K7520), Thermoanaerobium brockii NADP^+ dependent alcohol dehydrogenase (Lot Number 033K4093), Pseudomonas testosteroni 3α-hydroxysteroid dehydrogenase (Lot Number 053K8624), and Bacillus sphaericus 12α-hydroxysteroid dehydrogenase (Lot Number 70K16621) were purchased from Sigma (St. Louis, Mo.). Yeast alcohol dehydrogenase (Lot Number 93122920), glycerol dehydrogenase (Lot Number 92110122), (D)-lactate dehydrogenase (Lot Number 92419236), (L)-lactate dehydrogenase (Lot Number 92801821), NAD^+, NADP^+, NADH, and NADPH were purchased from Roche. Enzyme activity was confirmed by compliance to supplier's quality control assays prior to usage. Rat and human 3α-hydroxysteroid dehydrogenases were provided by Professor Trevor Penning (University of Pennsylvania School of Medicine) and human amyloid-β peptide binding alcohol dehydrogenase was supplied by Professor Shi Du Yan (Columbia University School for Physicians and Surgeons).
(§4) Enzymatic assays were performed in triplicate on selected fluorogenic substrates according to the following protocol. To each well of a FALCON 96-well black flat bottom plate was added (1) 40 μL of 500 mM potassium phosphate buffer pH 7.0, (2) 113 μL of double deionized water, (3) 25 μL of 2 mM NADH (except for Pseudomonas testosteroni 3α-hydroxysteroid dehydrogenase, rat 3α-hydroxysteroid dehydrogenase, and Thermoanaerobium brockii NADP^+ dependent alcohol dehydrogenase, in which cases 2 mM of NADPH was used), (4) 2 μL of a 3-5 mM solution of substrate in DMSO, and (5) 20 μL of a 40-50 μg/mL solution of enzyme. Reaction volumes were mixed thoroughly after addition of cofactor, substrate, and enzyme and allowed to react 12 hours at 25° C. Scanning of the 96-well plate was performed by the MicroMax 384 connected to a Jobin Yvon Fluorolog through F-3000 fiber optic cables.
(§5) Initial Screening with Fluorogenic Substrates: Screening of the first fluorogenic substrates for enzymatic activity has been described above. In short, 200 μL enzymatic assay volumes containing 100 mM potassium phosphate buffer (pH 7), 250 μM NAD(P)H cofactor, and 30-50 μM of ketones (1-7) were incubated for 12 hours on a black FALCON 96-well plate. Formation of the alcohol reduction product was determined by reading the fluorescence arising from excitation at the corresponding alcohol at either 340 nm (27-30) or 440 nm (31-33).

[2] = molecular target: T2, horse liver alcohol dehydrogenase (HLAD) (Equus caballus, UniProt P00327); test: as above
T2 construct: purchased Sigma (St. Louis, Mo.) Lot Number 51K7520 (catalogue number not given)
Method: as §1, §2, §3, §4, §5

[3] = molecular target: T3, Thermoanaerobium brockii alcohol dehydrogenase (TBAD) (Thermoanaerobacter brockii, UniProt P14941); test: as above
T3 construct: purchased Sigma (St. Louis, Mo.) Lot Number 033K4093 (catalogue number not given)
T3 sequence (P14941 1-352): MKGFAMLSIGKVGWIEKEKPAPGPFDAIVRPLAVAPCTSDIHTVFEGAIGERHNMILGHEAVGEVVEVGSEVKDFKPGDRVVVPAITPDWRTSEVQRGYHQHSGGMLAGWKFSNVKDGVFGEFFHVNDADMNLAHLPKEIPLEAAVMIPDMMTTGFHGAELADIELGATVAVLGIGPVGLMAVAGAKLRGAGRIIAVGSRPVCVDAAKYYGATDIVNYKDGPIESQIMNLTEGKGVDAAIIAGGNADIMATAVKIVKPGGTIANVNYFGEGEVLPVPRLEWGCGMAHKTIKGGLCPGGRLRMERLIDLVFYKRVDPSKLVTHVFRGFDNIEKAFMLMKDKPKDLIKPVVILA
Method: as §1, §2, §3, §4, §5

[4] = molecular target: T4, Pseudomonas testosteroni 3α-hydroxysteroid dehydrogenase (Comamonas testosteroni, UniProt P80702); test: as above
T4 construct: purchased Sigma (St. Louis, Mo.) Lot Number 053K8624 (catalogue number not given)
Method: as §1, §2, §3, §4, §5

T4 sequence (P80702 whole entry): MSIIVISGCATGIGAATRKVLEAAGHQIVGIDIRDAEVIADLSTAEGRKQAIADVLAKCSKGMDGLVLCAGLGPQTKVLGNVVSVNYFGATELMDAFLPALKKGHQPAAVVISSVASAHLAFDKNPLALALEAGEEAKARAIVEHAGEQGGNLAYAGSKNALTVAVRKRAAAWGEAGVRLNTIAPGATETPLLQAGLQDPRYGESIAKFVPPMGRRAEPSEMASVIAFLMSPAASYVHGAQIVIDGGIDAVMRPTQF
T2 sequence (P00327 2-375 limits assumed): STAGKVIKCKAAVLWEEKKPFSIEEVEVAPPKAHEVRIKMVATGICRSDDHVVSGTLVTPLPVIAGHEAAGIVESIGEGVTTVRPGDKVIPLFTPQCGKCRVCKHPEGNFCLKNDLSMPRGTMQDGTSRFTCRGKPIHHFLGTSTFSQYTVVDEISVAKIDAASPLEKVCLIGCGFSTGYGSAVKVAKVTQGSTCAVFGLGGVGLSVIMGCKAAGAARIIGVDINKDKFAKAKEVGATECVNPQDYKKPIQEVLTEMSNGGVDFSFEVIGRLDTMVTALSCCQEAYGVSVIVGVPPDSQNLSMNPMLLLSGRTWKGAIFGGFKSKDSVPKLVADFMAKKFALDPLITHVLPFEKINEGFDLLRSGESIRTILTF

Compound: CC(=O)c1cc(=O)oc2c3c4c(cc12)CCCN4CCC3 [compound 5, 8-Acetyl-2,3,5,6-tetrahydro-1H,4H-11-oxa-3a-aza-benzo[de]anthracen-10-one]
- reduction of probe by the other enzymes of the panel (panel of oxidoreductases): No other enzymes examined in this assay catalyzed the reduction
- reduction of probe (fluorescence increase) [1]: converted rapidly and selectively
- reduction of probe (fluorescence increase) [2]: not acceptant
- reduction of probe (fluorescence increase) [3]: not acceptant
- reduction of probe (fluorescence increase) [4]: converted rapidly and selectively

Source: patent publication US20100048604A1, “Ligands for Aldoketoreductases” (priority 2004, published 2010)
